Laboratory results as given in US9850366B2, “Epdxidized fatty acid alkyl ester plasticizers and methods for making epdxidized fatty acid alkyl ester plasticizers” (Dow Global Technologies LLC, priority 2012, dated 2017).

Columns and labels:
[1] = Solution temperature of PVC in plasticizer (DIN 53408); type: physicochemical; conditions: 0.6 g PVC in 15 mL plasticizer, heated at 1° C./min
Method: In various embodiments, the polymeric resin (such as PVC) has a solution temperature in the above-described plasticizer of less than 180° C., less than 170° C., or less than 160° C., as determined by Deutsches Institut für Normung (“DIN”) standard method 53 408.
Determine solution temperature in accordance with Deutsches Institut für Normung (“DIN”) 53408. Important test parameters such as the PVC/plasticizer amount and heating rate are optimized to be able to capture differences in solution temperature of different plasticizers in PVC. 0.6 g PVC is accurately weighed in a 20-mL glass vial and 15 mL of plasticizer is added to the PVC. The contents of the glass vial are stirred using a magnetic stirrer and heated using an oil bath at 1° C./min. A thermometer is used to record the temperature of the PVC/plasticizer mixture which is illuminated with a flash-light. When PVC is mixed with a plasticizer, a milky solution is generally obtained. As the temperature of the PVC/plasticizer mixture is raised, the PVC starts to imbibe the plasticizer and becomes translucent. As the temperature is raised further, the PVC particles swell and lose their shape forming a gel. At the solution temperature, a clear solution is obtained.

[2] = Water solubility (water content of plasticizer by Karl Fischer titration after mixing with water); type: physicochemical; conditions: Table 1; water uptake of plasticizer at room temperature
Method: Water Solubility 20 mL of plasticizer is taken in a beaker and mixed with equal volume of distilled water. The mixture is stirred vigorously at room temperature and allowed to settle in a separating funnel. The mixture forms an emulsion which takes approximately 24 hours to form separate layers of organic and aqueous phases. After 48 hours, the two layers are separated. The aqueous layer is drained and the organic layer containing plasticizer and some water is recovered. The organic layer contains water in dissolved form as well as in the fine emulsion form. This layer is centrifuged at 7000 rpm for one hour. This step separates water trapped in the plasticizer in dispersed form. The plasticizer is further analyzed for water content with the help of wet chemistry methods. Carl Fischer titration method is used to determine the water content in plasticizer.

[3] = type: physicochemical
Method: Solubility in PVC is determined according to American Society for Testing and Materials (“ASTM”) method D 3367-98. […] Water solubility of the epoxidized fatty acid alkyl ester is determined according to the procedures described in the Test Methods section, below. Solubility in PVC Measure solubility in PVC according to ASTM D 3367-98. Test parameters, such as the design of centrifuge tubes, soak temperature, soak time, drainage of plasticizer, and centrifuge speed to remove excess plasticizer, are optimized to be able to capture differences in plasticizer absorption and solubilities of different plasticizers in PVC. Centrifuge tubes with a 0.8 mm diameter hole at the bottom are used for the test. […] During the soak time, the plasticizer molecules wet the cell walls of PVC particles and penetrate through it due to its porosity. Once inside, the molecules start filling the void space. After the void space is completely filled with plasticizer, the PVC primary particles start absorbing the plasticizer. This absorption is relatively slow and continues until the primary particles reach saturation limit. It is therefore important to optimize the PVC/plasticizer soaking temperature and time. […] The plasticizer absorbed by PVC is measured from the weight gain of PVC (after accounting for weight gain due to plasticizer absorbed by cotton).

**Q.** Which “Solution temperature (° C.)” value [1] does the source give for CCCCCCCCC1OC1CCCCCCCC(=O)OC (stereo not drawn) [Sample S1, epoxidized methyl oleate] here?
**A.** The value was 114 °C.

**Q.** And the “Water solubility (%)” value [2]?
**A.** Its value is 0.68%.

**Q.** Which results are given for CCCCCCCC[C@H]1O[C@H]1CCCCCCCC(=O)OC(C)C [Sample S7]?
**A.** Solubility in PVC (g/100 g PVC) [3]: 34.1 g/100 g PVC; Solution temperature (° C.) [1]: 134 °C

**Q.** Which “Solubility in PVC (g/100 g PVC)” value [3] does the source give for CCCCCC1OC1CC1OC1CCCCCCCC(=O)OC (stereo not drawn) [Sample S2, epoxidized methyl linoleate] here?
**A.** The value was 244 g/100 g PVC.

**Q.** What about the “Solution temperature (° C.)” value [1] of the same molecule?
**A.** The value was 88 °C.

**Q.** With “epoxidized methyl linolenate [CS2, reference compound]” as the molecule, how does the “Solution temperature (° C.)” value [1] read?
**A.** The value was 124 °C.

**Q.** Which “Solution temperature (° C.)” value [1] does the source give for “epoxidized methyl linolenate [CS4, reference compound]” here?
**A.** The value was 98 °C.

**Q.** For “epoxidized methyl linolenate [CS3, reference compound]”, which “Solution temperature (° C.)” value [1] is on record?
**A.** The value was 98 °C.
